According to ChEMBL document CHEMBL3880412, “Indole derivatives as CFTR modulators” (2009):

Test system: Cystic fibrosis transmembrane conductance regulator (Homo sapiens), P13569 [F508del]
Assay: Correction activity at CFTR F508 deletion mutant (unknown origin) expressed in mouse NIH/3T3 cells assessed as increase in cAMP/genistein-dependent current amplitude at 10 uM incubated for 10 mins at 37 degC by patch clamp method relative to control
Format: cell-based

Chain of Cystic fibrosis transmembrane conductance regulator (Homo sapiens), P13569 [F508del] (P13569 as listed by the source): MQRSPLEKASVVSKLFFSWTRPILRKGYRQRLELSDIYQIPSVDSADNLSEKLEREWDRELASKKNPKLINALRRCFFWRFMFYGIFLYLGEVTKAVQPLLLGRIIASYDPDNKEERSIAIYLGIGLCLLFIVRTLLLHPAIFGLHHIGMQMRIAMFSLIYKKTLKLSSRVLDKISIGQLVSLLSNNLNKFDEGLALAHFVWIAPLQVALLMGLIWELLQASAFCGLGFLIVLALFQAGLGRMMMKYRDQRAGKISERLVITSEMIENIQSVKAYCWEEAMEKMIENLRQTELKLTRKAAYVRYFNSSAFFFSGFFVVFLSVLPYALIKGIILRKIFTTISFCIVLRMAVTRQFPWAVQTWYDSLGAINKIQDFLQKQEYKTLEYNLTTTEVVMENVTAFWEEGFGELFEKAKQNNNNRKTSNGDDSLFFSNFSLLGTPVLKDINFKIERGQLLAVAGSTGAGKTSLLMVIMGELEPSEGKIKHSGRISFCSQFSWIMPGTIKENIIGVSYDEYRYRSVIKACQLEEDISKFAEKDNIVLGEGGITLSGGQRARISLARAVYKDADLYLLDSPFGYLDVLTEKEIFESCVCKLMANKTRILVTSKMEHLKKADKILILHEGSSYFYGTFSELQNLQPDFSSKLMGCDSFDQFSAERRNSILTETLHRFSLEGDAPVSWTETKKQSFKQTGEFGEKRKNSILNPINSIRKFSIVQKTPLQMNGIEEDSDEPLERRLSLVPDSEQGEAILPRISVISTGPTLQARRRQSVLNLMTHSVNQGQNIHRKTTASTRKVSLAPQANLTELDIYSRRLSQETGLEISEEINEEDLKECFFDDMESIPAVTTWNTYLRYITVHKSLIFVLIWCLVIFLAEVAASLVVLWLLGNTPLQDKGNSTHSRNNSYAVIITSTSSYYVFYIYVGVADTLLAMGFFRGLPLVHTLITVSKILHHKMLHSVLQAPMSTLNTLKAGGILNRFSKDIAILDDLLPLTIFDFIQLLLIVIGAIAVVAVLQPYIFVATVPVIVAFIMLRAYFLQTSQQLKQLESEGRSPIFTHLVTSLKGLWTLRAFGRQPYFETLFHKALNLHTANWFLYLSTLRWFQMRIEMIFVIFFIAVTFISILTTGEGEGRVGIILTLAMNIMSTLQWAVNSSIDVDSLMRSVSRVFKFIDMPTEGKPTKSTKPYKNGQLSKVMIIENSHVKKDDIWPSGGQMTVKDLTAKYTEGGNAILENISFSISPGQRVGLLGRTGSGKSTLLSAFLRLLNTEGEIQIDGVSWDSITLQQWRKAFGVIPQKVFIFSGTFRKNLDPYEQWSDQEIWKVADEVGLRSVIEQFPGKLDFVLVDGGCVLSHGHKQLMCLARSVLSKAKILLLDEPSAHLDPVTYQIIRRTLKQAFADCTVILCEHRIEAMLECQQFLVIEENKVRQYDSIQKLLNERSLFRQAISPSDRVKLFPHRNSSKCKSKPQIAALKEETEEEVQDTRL

Emax [%] | SMILES
122 | CC(C)(C)c1cc2cc(NC(=O)C3(c4ccc5c(c4)OC(F)(F)O5)CC3)c(F)cc2n1CC[N+](C)(C)C
120 to 132 | CC(C)(C)c1cc2cc(NC(=O)C3(c4ccc5c(c4)OCO5)CC3)c(F)cc2n1C[C@@H](O)CO
